Measured values taken from patent US10143666B2, “Small molecule inhibitors targeting CAG-repeat RNA toxicity in polyglutamine diseases” (The Chinese University of Hong Kong, priority 2015, dated 2018).
Where “and” joins values, the source holds several entries; their conditions need not be identical. Equal entries are not always repeated.

Tests used:
[1] = system: pre-45s rRNA in EGFPCAG78 RNA expressing SK-N-MC cells; test: pre-45s rRNA real-time PCR, EGFPCAG78 RNA expressing SK-N-MC cells; assay type: cell-based, human
Description: Nucleolar stress and a chain of downstream events were triggered and ultimately led to apoptosis^7.
RNA was extracted from cells by Trizol reagent (Life Technologies), and 1 μg of purified RNA was then used for reverse-transcription using the ImPromII™ Reverse Transcription System (Promega). Random hexamer (Roche) was used as primers in reverse transcription. Taqman gene expression assays were performed on an ABI 7500 Real-time PCR system and data were analyzed as previously described^7. The following probes were used: pre-45s rRNA (Assay ID: AILJIZM) and actin (Assay ID: Hs99999903_m1).

[2] = mouse, in vivo, iv, 50 mg/kg
Description: Body temperature was measured from rectum on day 1 (baseline), and on days 3, 5 and 7.
Body temperature was measured from rectum on day 1 (baseline) and on days 3, 5 and 7.

DsRedCAG100 fly = test: Pseudopupil assay in DsRedCAG100 fly (expanded CAG-repeat RNA toxicity); assay type: in vivo, Drosophila; conditions: 12 day-old adult flies
From the text: (§1) The synthesis of DB213 was described in Marcheschi et al. (Scheme 1)^12, see FIG. 1. By using a MJD (one kind of polyQ diseases) Drosophila disease model, the inventors established an effective screening platform to test a series of synthesized small molecules for their activity to suppress polyQ-induced neurodegeneration. […] To test whether the compounds acted on CAG-repeat RNA level, another Drosophila model, DsRedCAG100^6, was employed. […] Therefore, DB213 was confirmed to modulate expanded CAG-repeat RNA-mediated toxicity in vivo.
(§2) Flies were raised at 21.5° C. on cornmeal medium supplemented with dry yeast. Pseudopupil assay was performed on 12 day-old adult flies as mentioned previously^18. Images were captured by SPOT Insight CCD camera controlled by the SPOT Advanced software (Diagnostic instruments Inc.). External eye assay was performed on 12 day-old adult flies by Olympus SZX-12 stereomicroscope. Eye images were captured using a SPOT Insight CCD camera (Diagnostic instruments Inc.).

Body weight in R6/2 mice = conditions: for Body weight (individual mouse): in g (unit assumed); for Body weight, differences between treatment groups: any time point, p>0.05
Description: The body weights were measured daily.

trMJDCAG78 cells = test: LDH cytotoxicity assay, trMJDCAG78 cell model; assay type: cell-based, human; conditions: both RNA and polyQ protein toxicities
Description: (§3) It was next investigated whether DB213 could mitigate expanded CAG-repeat RNA-mediated toxicity in SK-N-MC human neuronal cell. […] Taken together, DB213 could suppress the expanded CAG RNA-mediated but not polyQ protein-mediate toxicity in human neuronal cell.
(§4) SK-N-MC human neuronal cells were seeded on a 24-well plate and lactate dehydrogenase enzyme activity in the cell culture medium was measured 72 hours post-transfection and drugs treatment using the Cytotox 96 non-radioactive cytotoxicity assay (Promega).

DsRedCAG0 control fly = system: DsRedCAG0 control fly; design: species or system Drosophila; conditions: in vivo
From the text: as §1, §2

CGG90 fly = test: Neurodegeneration in CGG90 fly (Fragile X syndrome model); assay type: in vivo, Drosophila
Description: (§5) Other disease fly models, including α-synuclein (Parkinson's disease)^13, CTG480 (Myotonic dystrophy 1)^14 and CGG90 (Fragile X syndrome)^15 were employed to address the specificity of DB213 on trinucleotide repeat expansion RNA toxicity.
as §2

CTG480 fly = test: Neurodegeneration in CTG480 fly (Myotonic dystrophy 1 model); assay type: in vivo, Drosophila
Description: as §5, §2

r(CAG)7 RNA = test: Isothermal titration calorimetry (ITC) binding assay; conditions: 25° C., DB213 800 μM titrated to r(CAG)7 RNA 40 μM, one binding site model
Description: It was next investigated that whether DB213 would interact physically with CAG-repeat RNA and sequestrate the toxic RNA species from their pathogenic pathway. Isothermal titration calorimetry (ITC)^17 was adopted to identify the RNA-binding property of DB213.
Experiments were carried out using a MicroCal iTC200 isothermal titration calorimeter (GE Healthcare) at 25° C. Data were analyzed using the Origin® scientific plotting software version 7 (Microcal Software Inc.). DB213 (800 μM) was titrated to synthesized r(CAG)7 RNA (40 μM). The thermal titration data were fitted to the ‘one binding site model’ to determine the dissociation constant (KD).

[3] = system: primary rat cortical neurons; test: Cytotoxicity test on primary rat cortical neurons; assay type: cell-based
From the text: To address the specificity of DB213 on expanded CAG-repeat RNA toxicity in vitro, another small molecule compound, C4G2, labeled as ligand 3 in the study^17, was employed.

α-synuclein fly = test: Neurodegeneration in α-synuclein fly (Parkinson's disease model); assay type: in vivo, Drosophila
Description: as §5, §2

trMJDCAA/G78 cells = test: LDH cytotoxicity assay, trMJDCAA/G78 cell model; assay type: cell-based, human; conditions: only trMJDQ78 protein toxicity
Description: as §3, §4

In the case of `CN(C)CCCNC(=N)c1ccc(C(=N)NCCCN(C)C)cc1.Cl.Cl.Cl.Cl` [DB213], the “pre-45s rRNA transcription level” value [1] is reported as “could restore the pre-45s rRNA transcription level”, the “Body temperature (group Mean)” value [2] is reported as 37.5 and the “Suppression of DsRedCAG100 RNA-mediated toxicity (neurodegeneration)” value (DsRedCAG100 fly) is reported as “suppressed the DsRedCAG100 RNA-mediated toxicity in a dose-dependent manner”. The “Body weight (individual mouse)” value (Body weight in R6/2 mice; i.n. daily 50 mg/kg, Day 1, listed as Compound-5, 50 mg/kg) was 20.9 and 20 and 23.9, the Body weight (group Mean) (Body weight in R6/2 mice; i.n. daily 50 mg/kg, Day 2) was 21.1 g and the “Body weight (individual mouse)” value (Body weight in R6/2 mice; i.n. daily 50 mg/kg, Day 2, listed as Compound-5, 50 mg/kg) was 20.6 and 17.9 and 17.5 and 25.3. For the same molecule, the “Body weight (individual mouse)” value (Body weight in R6/2 mice; i.n. daily 50 mg/kg, Day 3, listed as Compound-5, 50 mg/kg) was 21.1 and 24 and 26.3, the Body weight (group Mean) (Body weight in R6/2 mice; i.n. daily 50 mg/kg, Day 4) was 22 g and the “Body weight (individual mouse)” value (Body weight in R6/2 mice; i.n. daily 50 mg/kg, Day 4, listed as Compound-5, 50 mg/kg) was 20.1 and 26.3. For the same molecule, the “Body weight (individual mouse)” value (Body weight in R6/2 mice; i.n. daily 50 mg/kg, Day 5, listed as Compound-5, 50 mg/kg) was 19.9 and 17.4 and 23.6 and 20.7 and 25.6, the Body weight (group Mean) (Body weight in R6/2 mice; i.n. daily 50 mg/kg, Day 6) was 21.5 g and the “Body weight (individual mouse)” value (Body weight in R6/2 mice; i.n. daily 50 mg/kg, Day 6, listed as Compound-5, 50 mg/kg) was 19.9 and 17.6 and 21.5 and 25. For the same molecule, the “Body weight (individual mouse)” value (Body weight in R6/2 mice; i.n. daily 50 mg/kg, Day 7, listed as Compound-5, 50 mg/kg) was 20.4 and 17.9 and 23.5 and 21.5 and 26.3, the “Body weight (individual mouse)” value (Body weight in R6/2 mice; i.n. daily 100 mg/kg, Day 1, listed as Compound-5, 100 mg/kg) was 19 and 20.6 and 23.5 and 23.2 and 23.7 and the Body weight (group Mean) (Body weight in R6/2 mice; i.n. daily 100 mg/kg, Day 2) was 21 g. For the same molecule, the “Body weight (individual mouse)” value (Body weight in R6/2 mice; i.n. daily 100 mg/kg, Day 2, listed as Compound-5, 100 mg/kg) was 20.3 and 19.2 and 23.2 and 20.7 and 23.6, the “Body weight (individual mouse)” value (Body weight in R6/2 mice; i.n. daily 100 mg/kg, Day 3, listed as Compound-5, 100 mg/kg) was 19.3 and 20.7 and 19.8 and 23.9 and 21.1 and the Body weight (group Mean) (Body weight in R6/2 mice; i.n. daily 100 mg/kg, Day 4) was 21.6 g. The “Body weight (individual mouse)” value (Body weight in R6/2 mice; i.n. daily 100 mg/kg, Day 4, listed as Compound-5, 100 mg/kg) was 19.4 and 19.8 and 24 and 21.1 and 24.4, the “Body weight (individual mouse)” value (Body weight in R6/2 mice; i.n. daily 100 mg/kg, Day 5, listed as Compound-5, 100 mg/kg) was 20.6 and 19.4 and 23.6 and 20.7 and 23.9 and the Body weight (group Mean) (Body weight in R6/2 mice; i.n. daily 100 mg/kg, Day 6) was 21.5 g. For the same molecule, the “Body weight (individual mouse)” value (Body weight in R6/2 mice; i.n. daily 100 mg/kg, Day 6, listed as Compound-5, 100 mg/kg) was 19.8 and 23.6 and 21.1 and 24, the Body weight (group Mean) (Body weight in R6/2 mice; i.n. daily 100 mg/kg, Day 7) was 21.1 g and the “Body weight (individual mouse)” value (Body weight in R6/2 mice; i.n. daily 100 mg/kg, Day 7, listed as Compound-5, 100 mg/kg) was 19 and 19.4 and 24.7. The Body weight (group Mean) (Body weight in R6/2 mice; i.n. daily 200 mg/kg, Day 1) was 20.9 g, the “Body weight (individual mouse)” value (Body weight in R6/2 mice; i.n. daily 200 mg/kg, Day 1, listed as Compound-5, 200 mg/kg) was 19.9 and 23.6 and the “Body weight (individual mouse)” value (Body weight in R6/2 mice; i.n. daily 200 mg/kg, Day 2, listed as Compound-5, 200 mg/kg) was 23.5. The Body weight (group Mean) (Body weight in R6/2 mice; i.n. daily 200 mg/kg, Day 3) was 20.4 g, the “Body weight (individual mouse)” value (Body weight in R6/2 mice; i.n. daily 200 mg/kg, Day 3, listed as Compound-5, 200 mg/kg) was 18.3 and 19.2 and 21.5 and the “Body weight (individual mouse)” value (Body weight in R6/2 mice; i.n. daily 200 mg/kg, Day 4, listed as Compound-5, 200 mg/kg) was 17.9 and 19. The Body weight (group Mean) (Body weight in R6/2 mice; i.n. daily 200 mg/kg, Day 5) was 20.7 g, the “Body weight (individual mouse)” value (Body weight in R6/2 mice; i.n. daily 200 mg/kg, Day 5, listed as Compound-5, 200 mg/kg) was 18.2 and 18.3 and 22.7 and the “Body weight (individual mouse)” value (Body weight in R6/2 mice; i.n. daily 200 mg/kg, Day 6, listed as Compound-5, 200 mg/kg) was 18.4 and 23.1. For the same molecule, the Body weight (group Mean) (Body weight in R6/2 mice; i.n. daily 200 mg/kg, Day 7) was 20.4 g, the Body weight (group Mean) (Body weight in R6/2 mice; i.n. daily 300 mg/kg, Day 1) was 21.6 g and the Body weight (group Mean) (Body weight in R6/2 mice; i.n. daily 300 mg/kg, Day 2) was 20.2 g. The Body weight (group Mean) (Body weight in R6/2 mice; i.n. daily 300 mg/kg, Day 3) was 19.5 g, the Body weight (group Mean) (Body weight in R6/2 mice; i.n. daily 300 mg/kg, Day 6) was 20.1 g and the Body weight (group Mean) (Body weight in R6/2 mice; i.n. daily 300 mg/kg, Day 7) was 20.4 g. For the same molecule, the “Body weight, differences between treatment groups” value (Body weight in R6/2 mice; i.n. daily 50-300 mg/kg) was “no differences in body weight”, the Body weight (group Mean) (Body weight in R6/2 mice; i.v. 50 mg/kg (treatment discontinued), Day 2, n 1) was 16.1 g and the Body weight (group Mean) (Body weight in R6/2 mice; i.v. 50 mg/kg (treatment discontinued), Day 3, n 1) was 16.3 g. For the same molecule, the Body weight (group Mean) (Body weight in R6/2 mice; i.v. 50 mg/kg (treatment discontinued), Day 4, n 1) was 16.2 g, the Body weight (group Mean) (Body weight in R6/2 mice; i.v. 50 mg/kg (treatment discontinued), Day 5, n 1) was 16.8 g and the Body weight (group Mean) (Body weight in R6/2 mice; i.v. 50 mg/kg (treatment discontinued), Day 6 (not measured, replaced by mean of days 5 and 7), n 1) was 16.8 g. It also gave a Body weight (group Mean) (Body weight in R6/2 mice; i.v. 50 mg/kg (treatment discontinued), Day 7, n 1) of 16.8 g, a Body weight (group Mean) (Body weight in R6/2 mice; i.v. twice-a-week 12.5 mg/kg, Day 3) of 22 g and a Body weight (group Mean) (Body weight in R6/2 mice; i.v. twice-a-week 12.5 mg/kg, Day 4) of 22 g. The Body weight (group Mean) (Body weight in R6/2 mice; i.v. twice-a-week 12.5 mg/kg, Day 6 (not measured, replaced by mean of days 5 and 7)) was 22.4 g, the Body weight (group Mean) (Body weight in R6/2 mice; i.v. twice-a-week 12.5 mg/kg, Day 7) was 22.6 g and the Body weight (group Mean) (Body weight in R6/2 mice; i.v. twice-a-week 25 mg/kg, Day 2) was 21 g. The Body weight (group Mean) (Body weight in R6/2 mice; i.v. twice-a-week 25 mg/kg, Day 3) was 21.6 g, the Body weight (group Mean) (Body weight in R6/2 mice; i.v. twice-a-week 25 mg/kg, Day 4) was 21.6 g and the Body weight (group Mean) (Body weight in R6/2 mice; i.v. twice-a-week 25 mg/kg, Day 7) was 22 g. The “Body weight, differences between treatment groups” value (Body weight in R6/2 mice; i.v. twice-a-week 12.5 and 25 mg/kg) was “no differences in body weight”, the “Cell death (LDH assay)” value (trMJDCAG78 cells) was “only partially inhibited the abnormal cell death” and the “Dominant toxic effect in control fly” value (DsRedCAG0 control fly) was “did not show any dominant toxic effect”. The Suppression of neurodegeneration (CGG90 fly) was “did not suppress the neurodegeneration”, the Suppression of neurodegeneration (CTG480 fly) was “did not suppress the neurodegeneration” and the Kd (r(CAG)7 RNA) was 1530 ± 250 nM. For the same molecule, the “No observed cytotoxicity up to” value ([3]; cellular toxicity) was “up to 12.8 μM”, the “Concentration up to which viability of wild-type primary neurons was not compromised” value ([3]; primary rat cortical neurons) was “up to 12,800 nM” and the Suppression of neurodegeneration (α-synuclein fly) was “did not suppress the neurodegeneration”. For the same molecule, the “Cell death level (LDH assay)” value (trMJDCAA/G78 cells) was “did not alter the cell death level”.
